The source of these data is patent publication US20120142771A1, “BIPHENYLACETAMIDE DERIVATIVE” (Dainippon Sumitomo Pharma Co., Ltd., priority 2008, published 2012).

What all share (assay type): in vivo, mice
The subject of assay [1] is maximum electroshock seizure (MES) model. The experiment in a line: Maximum electroshock seizure (MES) model test. To be noted: Slc: ddY male mice, 3 per group, electrical stimulation 1 hour after administration, inhibition of hind limb extension; for responders at 50 mg/kg / responders at 100 mg/kg: Mus musculus, po, 1 h, read-out: MES (positive number/tested number) (converted); for responders at 100 mg/kg: 100 mg/kg oral. The gist of the method: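 Tonic hind-limb extension was elicited by corneal electroshock (60 Hz, 25 mA, 0.2 s) 1 h after oral dosing. Test compounds were given at 50 or 100 mg/kg to groups of 3 male Slc: ddY mice (20-30 g), vehicle controls receiving 0.5% tragacanth or 0.5% methylcellulose solution.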

For assay [2], the system named is subcutaneously pentetrazol-injected model (scPTZ). The experiment in a line: Subcutaneously pentetrazol-injected model (scPTZ) test. Conditions: Slc: ddY male mice, 3 per group, pentetrazol 85 mg/kg s.c. after 1 hour, observed 30 minutes for clonic convulsion; for responders at 50 mg/kg / responders at 100 mg/kg: Mus musculus, po, 1 h, read-out: scPTZ (positive number/tested number) (converted). The gist of the method: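 Pentetrazol (85 mg/kg, s.c.) was injected one hour after oral test compound at 50 or 100 mg/kg in groups of three male Slc:ddY mice weighing 20-30 g; vehicle controls got 0.5% tragacanth or 0.5% methylcellulose.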

Assay [3] has as its system 6 Hz psychomotor seizure model. Put plainly: 6 Hz psychomotor seizure model. Conditions: mice, oral, dose 100 mg/kg; 30 minutes or 1 hour after administration. The method, then:
Test 4: Test of 6 Hz Psychomotor Seizure Model
Similar to Tests 1 and 2, Test 4 evaluates the anticonvulsant action of medicaments. However, unlike Tests 1 and 2, the animal model used herein represents clinical phenotypes of seizures resistant to existing antiepileptic drugs. […] After 30 minutes or an hour of administration, their corneas were electrically stimulated (6 Hz, 32 mA, 3 seconds) to induce symptoms of myoclonus in their forelimbs, Straub tail, and immobility. […] To the control mice, 0.5% tragacanth solution, 0.5% methylcellulose solution, or olive oil was administered.

On to `NC(=O)Cc1ccccc1-c1cccc(F)c1Cl` [Example 86, 2-(2′-chloro-3′-fluorobiphenyl-2-yl)acetamide], for which the responders at 50 mg/kg was 100% in assay [1] (50 mg/kg oral) and 33.3% in assay [2] (50 mg/kg oral). Further, the responders at 100 mg/kg in assay [1] and in assay [2] (100 mg/kg oral) was 66.7% throughout. In assay [3], the “6 Hz (Positive number/tested number)” value is listed as 2/5/100.
As for `CNC(=O)Cc1ccccc1-c1ccccc1F` [Example 28, 2-(2′-fluorobiphenyl-2-yl)-N-methylacetamide], the responders at 50 mg/kg in assay [1] (50 mg/kg oral) and in assay [2] (50 mg/kg oral) was 0% throughout. Moreover, the responders at 100 mg/kg in assay [1] is 100%; in assay [2] (100 mg/kg oral) it was 66.7%.
As for `COC(C(N)=O)c1ccccc1-c1ccccc1F` (centres unmarked) [Example 200, 2-(2′-fluorobiphenyl-2-yl)-2-methoxyacetamide], the results for the responders at 50 mg/kg in assay [1] (50 mg/kg oral) and in assay [2] (50 mg/kg oral) were 0% and 33.3%, respectively. Further, the responders at 100 mg/kg in assay [1] is 100%; in assay [2] (100 mg/kg oral), 66.7%.
As for `NC(=O)C(F)(F)c1ccccc1-c1ccccc1F` [Example 169], the responders at 100 mg/kg in assay [1] was 100%; in assay [2] (100 mg/kg oral), 33.3%.
With `CNC(=O)Cc1ccccc1-c1cccc(C)c1` [Example 31, N-methyl-2-(3′-methylbiphenyl-2-yl)-acetamide], the responders at 100 mg/kg in assay [1] is 0%; in assay [2] (100 mg/kg oral), 66.7%. Also, the responders at 50 mg/kg in assay [2] (50 mg/kg oral) was 33.3%.
Regarding `NC(=O)Cc1ccccc1-c1ccc(F)c(F)c1F` [Example 89, 2-(2′,3′,4′-trifluorobiphenyl-2-yl)acetamide], the responders at 50 mg/kg in assay [1] (50 mg/kg oral) is 0%; in assay [2] (50 mg/kg oral), 33.3%. In addition, the values for the responders at 100 mg/kg in assay [1] and in assay [2] (100 mg/kg oral) were 100% and 66.7%, respectively.
For `CC(C)(C)NC(=O)Cc1ccccc1-c1ccccc1F` [Example 145], the responders at 100 mg/kg in assay [1] is 0%; in assay [2] (100 mg/kg oral) it was 33.3%.
On to `CNC(=O)Cc1cc(F)ccc1-c1ccccc1F` [Example 47, 2-(2′,4-difluorobiphenyl-2-yl)-N-methylacetamide], for which, in assay [1] (50 mg/kg oral), the responders at 50 mg/kg was 100%. Also, the responders at 100 mg/kg in assay [1] is 100%; in assay [2] (100 mg/kg oral) it was 0%.
On to `COC(C(=O)N(C)C)c1ccccc1-c1ccccc1F` (centres unmarked) [Example 202, 2-(2′-fluorobiphenyl-2-yl)-2-methoxy-N,N-dimethylacetamide], for which the responders at 50 mg/kg in assay [1] (50 mg/kg oral) is 33.3%; in assay [2] (50 mg/kg oral), 0%. Also, the responders at 100 mg/kg in assay [1] was 66.7%; in assay [2] (100 mg/kg oral), 100%.
Turning to `CN(C)C(=O)Cc1cc(Cl)ccc1-c1ccccc1F` [Example 38], the responders at 100 mg/kg in assay [1] is 0%; in assay [2] (100 mg/kg oral), 100%. For the same molecule, the responders at 50 mg/kg in assay [2] (50 mg/kg oral) is 0%.
Consider `CNC(=O)Cc1ccccc1-c1ccc(Cl)cc1C(F)(F)F` [Example 105], for which the responders at 100 mg/kg in assay [1] is 0%; in assay [2] (100 mg/kg oral), 66.7%.
For the molecule `NC(=O)C(O)c1ccccc1-c1cc(F)cc(Cl)c1` (single isomer, unassigned) [Example 217, 2-(3′-Chloro-5′-fluorobiphenyl-2-yl)-2-hydroxyacetamide], the “MES (positive number/tested number)” value in assay [1] (50 mg/kg oral) is given as 2/3. The results for the “scPTZ (positive number/tested number)” value in assay [2] (50 mg/kg oral) and in assay [2] (100 mg/kg oral) were 1/3 and 3/3, respectively.
Take `CN(C)C(=O)Cc1ccccc1-c1ccccc1C(F)(F)F` [Example 9]: the responders at 100 mg/kg was 33.3% in assay [1] and 66.7% in assay [2] (100 mg/kg oral). Further, the responders at 50 mg/kg in assay [2] (50 mg/kg oral) was 0%.
In the case of `NC(=O)Cc1cc(F)ccc1-c1cccc(F)c1` [Example 133], the values for the responders at 100 mg/kg in assay [1] and in assay [2] (100 mg/kg oral) were 100% and 33.3%, respectively.
`NC(=O)Cc1ccc(Cl)cc1-c1ccccc1` [Example 123]: the responders at 100 mg/kg in assay [1] is 100%; in assay [2] (100 mg/kg oral), 33.3%.
Turning to `NC(=O)C(O)c1ccccc1-c1cc(F)ccc1F` (centres unmarked) [Example 192], the results for the responders at 100 mg/kg in assay [1] and in assay [2] (100 mg/kg oral) were 100% and 33.3%, respectively.
Consider `NC(=O)Cc1cc(Cl)ccc1-c1ccccc1` [Example 35], for which, in assay [1] (50 mg/kg oral), the responders at 50 mg/kg is 0%. Further, the responders at 100 mg/kg in assay [1] is 66.7%; in assay [2] (100 mg/kg oral), 0%.
In the case of `NC(=O)Cc1ccccc1-c1cc(C(F)(F)F)ccc1Cl` [Example 96], the results for the responders at 100 mg/kg in assay [1] and in assay [2] (100 mg/kg oral) were 33.3% and 66.7%, respectively.
For `NC(=O)Cc1ccc(C(F)(F)F)cc1-c1cccc(F)c1` [Example 149, 2-[3′-fluoro-5-(trifluoromethyl)biphenyl-2-yl]acetamide], the values for the responders at 50 mg/kg in assay [1] (50 mg/kg oral) and in assay [2] (50 mg/kg oral) were 33.3% and 0%, respectively. Also, the responders at 100 mg/kg in assay [1] and in assay [2] (100 mg/kg oral) was 66.7% each time.
Take `NC(=O)Cc1ccccc1-c1ccc(C(F)(F)F)cc1` [Example 51]: in assay [1] (50 mg/kg oral), the responders at 50 mg/kg was 0%. The figures for the responders at 100 mg/kg in assay [1] and in assay [2] (100 mg/kg oral) were 100% and 33.3%, respectively.
Regarding `COC(C(N)=O)c1ccccc1-c1ccccc1` (centres unmarked) [Example 61, 2-(Biphenyl-2-yl)-2-methoxyacetamide], the responders at 50 mg/kg in assay [1] (50 mg/kg oral) and in assay [2] (50 mg/kg oral) was 0% throughout. In addition, the values for the responders at 100 mg/kg in assay [1] and in assay [2] (100 mg/kg oral) were 66.7% and 100%, respectively.
Take `CNC(=O)Cc1cc(F)ccc1-c1cccc(F)c1` [Example 134]: the results for the responders at 100 mg/kg in assay [1] and in assay [2] (100 mg/kg oral) were 100% and 0%, respectively.
Regarding `CNC(=O)C1(c2ccccc2-c2ccccc2)CC1` [Example 156], the responders at 50 mg/kg in assay [1] (50 mg/kg oral) is 0%. For the same molecule, the responders at 100 mg/kg was 100% in assay [1] and 33.3% in assay [2] (100 mg/kg oral).
Consider `CNC(=O)Cc1ccccc1-c1ccc(C(F)(F)F)cc1` [Example 2, N-methyl-2-[4′-(trifluoromethyl)biphenyl-2-yl]acetamide], for which, in assay [1] (50 mg/kg oral), the responders at 50 mg/kg is 100%. For the same molecule, the responders at 100 mg/kg is 100% in assay [1] and 0% in assay [2] (100 mg/kg oral).
On to `NC(=O)C(O)c1ccccc1-c1ccc(Cl)c(C(F)(F)F)c1` (centres unmarked) [Example 195], for which the values for the responders at 100 mg/kg in assay [1] and in assay [2] (100 mg/kg oral) were 100% and 33.3%, respectively.
Take `CNC(=O)Cc1ccc(Cl)cc1-c1ccccc1` [Example 124, 2-(5-chlorobiphenyl-2-yl)-N-methylacetamide]: the responders at 50 mg/kg in assay [1] (50 mg/kg oral) and in assay [2] (50 mg/kg oral) was 0% each time. In addition, the responders at 100 mg/kg in assay [1] and in assay [2] (100 mg/kg oral) was 100% each time.
For `NC(=O)Cc1cc(Cl)ccc1-c1ccc(F)cc1` [Example 129], the values for the responders at 100 mg/kg in assay [1] and in assay [2] (100 mg/kg oral) were 100% and 33.3%, respectively.
Consider `NC(=O)Cc1ccc(F)cc1-c1cccc(Cl)c1` [Example 43], for which the responders at 50 mg/kg is 66.7% in assay [1] (50 mg/kg oral) and 33.3% in assay [2] (50 mg/kg oral). The responders at 100 mg/kg in assay [1] and in assay [2] (100 mg/kg oral) was 66.7% throughout.
On to `CNC(=O)Cc1ccc(C(F)(F)F)cc1-c1ccccc1` [Example 33], for which, in assay [1] (50 mg/kg oral), the responders at 50 mg/kg was 33.3%. For the same molecule, the results for the responders at 100 mg/kg in assay [1] and in assay [2] (100 mg/kg oral) were 66.7% and 33.3%, respectively.
For the molecule `NC(=O)Cc1cc(OC(F)(F)F)ccc1-c1ccccc1` [Example 34], the responders at 100 mg/kg in assay [1] is 0%; in assay [2] (100 mg/kg oral), 66.7%. Also, the responders at 50 mg/kg in assay [2] (50 mg/kg oral) was 33.3%.
Take `CCNC(=O)Cc1cc(Cl)ccc1-c1ccccc1` [Example 37]: the responders at 100 mg/kg in assay [1] is 0%; in assay [2] (100 mg/kg oral), 33.3%.
Take `CNC(=O)Cc1cc(F)ccc1-c1ccc(Cl)cc1` [Example 132]: the responders at 100 mg/kg in assay [1] was 100%; in assay [2] (100 mg/kg oral) it was 0%.
For the molecule `NC(=O)Cc1ccc(F)cc1-c1cccc(F)c1` [Example 120], the responders at 50 mg/kg in assay [1] (50 mg/kg oral) is 0%. The figures for the responders at 100 mg/kg in assay [1] and in assay [2] (100 mg/kg oral) were 100% and 33.3%, respectively.
In the case of `NC(=O)C(O)c1ccc(F)cc1-c1cc(Cl)cc(Cl)c1` (centres unmarked) [Example 184, 2-(3′,5′-dichloro-5-fluorobiphenyl-2-yl)-2-hydroxyacetamide], the responders at 50 mg/kg is 66.7% in assay [1] (50 mg/kg oral) and 33.3% in assay [2] (50 mg/kg oral). Further, the responders at 100 mg/kg was 100% in assay [1] and 66.7% in assay [2] (100 mg/kg oral).
